{"source": "patent US9480688B2", "about": "“Pheromone compositions and their use to modify behavior in different vertebrate species” (priority 2011, dated 2016)", "tested_on": "weaning foals", "test": "Ointment test on weaning foals, behavioral observations", "assay_type": "in vivo, horse", "parameters": "increase of vocalizations compared to control treatment: concentration or dose not given beside the values", "procedure": "A total of 20 foals divided into two groups (Group A, n=10; Group B, n=10) were weaned in pens of similar size and at the same time of the day (9 am), and were evaluated using a control and pheromone compositions. All horses were between 5 and 6 months of age and mixed breeds, primarily quarter horses. An ointment form of the composition comprising Androstenone was prepared in accordance with Table 7 for administering to the horses in this study.\nAn ointment composition containing a different pheromone, 2-methylbut-2-enal (RP, 1 mg/mL), was also prepared for administration in a comparison study. An ointment containing no pheromone was prepared and used as control (CON). In group A, 5 foals were used for the control treatment, 3 foals were used for the RP treatment, and 2 foals were used for the Androstenone treatment. In group B, 3 foals were used for the control treatment, 3 foals were used for the RP treatment, and 4 foals were used for the Androstenone treatment. As such, a total of 8 foals were used for the control treatment, 6 foals were used for the RP treatment, and 6 foals were used for the Androstenone treatment in this entire study. Both of the pheromone formulations and the control were applied to each nostril. Control treatments were administered first to prevent any cross contamination to horses during day two.\nBehavioral observations were taken during the first 10 minutes (Group A and Group B) and then for four hours (Group B only) after the mares were separated from their foals. Foal behavior was recorded every minute during the first hour (or 10 minutes) and every 5 minutes for the remaining 3 hours of the study for Group B.\nBehaviors were not mutually exclusive.\nThe number of shocks received by the electric fence (as foals tried to return to their mare) and vocalizations were recorded continuously. The total number of observations of each defined behaviors over the first 4 hours in Group B is presented in Table 9, which also provides the percentage of each behavior over the total number of recorded number of behaviors.", "key": {"[1]": {"settings": "Group B, first 4 hours after weaning"}, "[2]": {"settings": "Group B, first 4 hours after weaning, ointment in each nostril"}, "[3]": {"settings": "first 10 minutes post weaning (n = 20)"}, "[4]": {"settings": "first 10 minutes post weaning, Group A and Group B (n = 20)"}}, "data": [{"smiles": "CC=C(C)C=O", "note": "[RP, 2-methylbut-2-enal, reference compound]", "values": [{"measurement": "increase of vocalizations compared to control treatment", "setting": "4 hour period after weaning", "value": 372, "unit": "%"}, {"measurement": "effect on feeding (eating hay)", "setting": "4 hour period after weaning, compared to control", "value": "decreased"}, {"measurement": "Percent of observations: defecation", "setting": "[1]", "value": 0.3, "unit": "%"}, {"measurement": "Percent of observations: drink", "setting": "[1]", "value": 0.3, "unit": "%"}, {"measurement": "Percent of observations: feeding", "setting": "[1]", "value": 2.9, "unit": "%"}, {"measurement": "Percent of observations: fight", "setting": "[1]", "value": 0.0, "unit": "%"}, {"measurement": "Percent of observations: head shake", "setting": "[1]", "value": 0.1, "unit": "%"}, {"measurement": "Percent of observations: interact", "setting": "[1]", "value": 0.0, "unit": "%"}, {"measurement": "Percent of observations: lying", "setting": "[1]", "value": 0.0, "unit": "%"}, {"measurement": "Percent of observations: pace", "setting": "[1]", "value": 1.4, "unit": "%"}, {"measurement": "Percent of observations: paw", "setting": "[1]", "value": 0.0, "unit": "%"}, {"measurement": "Percent of observations: shock", "setting": "[1]", "value": 1.0, "unit": "%"}, {"measurement": "Percent of observations: stand", "setting": "[1]", "value": 30.8, "unit": "%"}, {"measurement": "Percent of observations: trot", "setting": "[1]", "value": 3.1, "unit": "%"}, {"measurement": "Percent of observations: vocal", "setting": "[1]", "value": 58.6, "unit": "%"}, {"measurement": "Percent of observations: walk", "setting": "[1]", "value": 1.4, "unit": "%"}, {"measurement": "Total observations: defecation", "setting": "[2]", "value": 2}, {"measurement": "Total observations: drink", "setting": "[2]", "value": 2}, {"measurement": "Total observations: feeding", "setting": "[2]", "value": 21}, {"measurement": "Total observations: fight", "setting": "[2]", "value": 0}, {"measurement": "Total observations: head shake", "setting": "[2]", "value": 1}, {"measurement": "Total observations: interact", "setting": "[2]", "value": 0}, {"measurement": "Total observations: lying", "setting": "[2]", "value": 0}, {"measurement": "Total observations: pace", "setting": "[2]", "value": 10}, {"measurement": "Total observations: paw", "setting": "[2]", "value": 0}, {"measurement": "Total observations: shock", "setting": "[2]", "value": 7}, {"measurement": "Total observations: stand", "setting": "[2]", "value": 220}, {"measurement": "Total observations: trot", "setting": "[2]", "value": 22}, {"measurement": "Total observations: vocal", "setting": "[2]", "value": 422}, {"measurement": "Total observations: walk", "setting": "[2]", "value": 10}, {"measurement": "increase of vocalizations over controls", "setting": "first 10 minutes after weaning", "value": 42, "unit": "fold"}, {"measurement": "Percent of observations: defecation", "setting": "[3]", "value": 0.0, "unit": "%"}, {"measurement": "Percent of observations: drink", "setting": "[3]", "value": 0.0, "unit": "%"}, {"measurement": "Percent of observations: eat", "setting": "[3]", "value": 0.0, "unit": "%"}, {"measurement": "Percent of observations: fight", "setting": "[3]", "value": 0.0, "unit": "%"}, {"measurement": "Percent of observations: head shake", "setting": "[3]", "value": 0.0, "unit": "%"}, {"measurement": "Percent of observations: interact", "setting": "[3]", "value": 0.0, "unit": "%"}, {"measurement": "Percent of observations: lying", "setting": "[3]", "value": 0.0, "unit": "%"}, {"measurement": "Percent of observations: pace", "setting": "[3]", "value": 6.1, "unit": "%"}, {"measurement": "Percent of observations: paw", "setting": "[3]", "value": 0.0, "unit": "%"}, {"measurement": "Percent of observations: shock", "setting": "[3]", "value": 3.3, "unit": "%"}, {"measurement": "Percent of observations: stand", "setting": "[3]", "value": 24.2, "unit": "%"}, {"measurement": "Percent of observations: trot", "setting": "[3]", "value": 66.7, "unit": "%"}, {"measurement": "Percent of observations: vocal", "setting": "[3]", "value": 69.7, "unit": "%"}, {"measurement": "Percent of observations: walk", "setting": "[3]", "value": 3.0, "unit": "%"}, {"measurement": "Total observations: defecation", "setting": "[4]", "value": 0}, {"measurement": "Total observations: drink", "setting": "[4]", "value": 0}, {"measurement": "Total observations: eat", "setting": "[4]", "value": 0}, {"measurement": "Total observations: fight", "setting": "[4]", "value": 0}, {"measurement": "Total observations: head shake", "setting": "[4]", "value": 0}, {"measurement": "Total observations: interact", "setting": "[4]", "value": 0}, {"measurement": "Total observations: lying", "setting": "[4]", "value": 0}, {"measurement": "Total observations: pace", "setting": "[4]", "value": 2}, {"measurement": "Total observations: paw", "setting": "[4]", "value": 0}, {"measurement": "Total observations: shock", "setting": "[4]", "value": 4}, {"measurement": "Total observations: stand", "setting": "[4]", "value": 8}, {"measurement": "Total observations: trot", "setting": "[4]", "value": 22}, {"measurement": "Total observations: vocal", "setting": "[4]", "value": 85}, {"measurement": "Total observations: walk", "setting": "[4]", "value": 1}]}]}
